Test results: ChEMBL document CHEMBL4706671, “A High-Affinity Peptide Ligand Targeting Syntenin Inhibits Glioblastoma” (J Med Chem, 2021)
pKi: −log10 of the molar value. The source made the active and inactive calls. The calls are words filed in the database; no cut-off is given here. Non-standard residues stand in square brackets, D forms with d. Residues, ends and D or L forms follow the SMILES beside them. *: point of attachment. X1 = CN(C)c1ccc2c(-c3cc(C(=O)*)ccc3C(=O)[O-])c3ccc(=[N+](C)C)cc-3oc2c1; Biotin = O=C1N[C@H]2[C@H](CS[C@H]2CCCCC(=O)*)N1; Chg = N[C@H](C(=O)O)C1CCCCC1; Tle = CC(C)(C)[C@H](N)C(=O)O; AEEA = NCCOCCOCC(=O)O

Experiments:
[1] = target: T1, Syntenin-1 (Homo sapiens) (UniProt O00560); test: Inhibition of mCherry-labeled-syntenin expressed in human MCF7 cells co-expressing […] Q79L mutant assessed as reduction in syntenin-dependent intracellular endosomal budding at 0.1 to 10 uM incubated for 24 hrs; type: cell-based; settings: dose 0.1-10 µM
T1 sequence (whole entry): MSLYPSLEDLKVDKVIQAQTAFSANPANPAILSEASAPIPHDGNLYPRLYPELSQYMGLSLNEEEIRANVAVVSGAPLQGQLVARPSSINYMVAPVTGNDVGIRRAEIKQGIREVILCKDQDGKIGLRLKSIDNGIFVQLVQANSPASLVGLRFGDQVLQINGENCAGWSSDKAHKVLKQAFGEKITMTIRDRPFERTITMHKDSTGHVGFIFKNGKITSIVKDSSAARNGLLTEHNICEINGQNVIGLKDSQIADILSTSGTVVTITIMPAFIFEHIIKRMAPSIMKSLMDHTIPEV

[2] = target: T2, Syntenin-1 (Homo sapiens, UniProt O00560); test: (§1) Inhibition of syntenin-PDZ1-2 domain (unknown origin) expressed in Escherichia coli BL21 (DE3) incubated for 5 mins by fluorescence polarization assay
T2 sequence (O00560 whole entry): T1 sequence (whole entry)

[3] = test system: MCF7; test: Antineoplastic activity against human MCF7 cells assessed as reduction in cell viability at 10 to 30 uM incubated for 72 hrs by Cell-titer-Glo luminescent cell viability assay; type: functional, cell-based; settings: dose 10-30 µM
[4] = test system: HT-29; test: Antineoplastic activity against human HT-29 cells assessed as reduction in cell viability at 10 to 30 uM incubated for 72 hrs by Cell-titer-Glo luminescent cell viability assay; type: functional, cell-based; settings: dose 10-30 µM
[5] = Stability in mouse hepatic microsomes assessed as half life for compound degradation at […] in presence of NADPH by UPLC analysis; type: ADME, Microsome; settings: liver microsomes
[6] = Stability in human plasma assessed as half life for compound degradation at 0.2 mM by UPLC analysis; type: ADME, cell-free
[7] = test system: A2058; test: Antineoplastic activity against human A2058 cells assessed as reduction in cell viability incubated for 72 hrs by Cell-titer-Glo luminescent cell viability assay; type: functional, cell-based
[8] = organism: Homo sapiens; test: Selectivity index, ratio of Kd for binding affinity to syntenin2-PDZ1-2 domain (unknown origin) expressed in Escherichia coli BL21 (DE3) by SPR analysis to Kd for binding affinity to syntenin-PDZ1-2 domain (unknown origin) expressed in Escherichia coli BL21 (DE3) by SPR analysis
[9] = target: T2, Syntenin-1; test: Binding affinity to syntenin-PDZ1-2 domain (unknown origin) expressed in Escherichia coli BL21 (DE3) by SPR analysis
[10] = target: T1, Syntenin-1 (Homo sapiens); test: Binding affinity to syntenin-PDZ1-2 domain (unknown origin) expressed in Escherichia coli BL21 (DE3) assessed as apparent dissociation rate constant by SPR analysis
[11] = target: T1, Syntenin-1 (Homo sapiens); test: Binding affinity to human syntenin-PDZ1 domain assessed as binding intensity by HTS holdup assay
[12] = target: T1, Syntenin-1 (Homo sapiens); test: Binding affinity to syntenin-PDZ1-2 domain (unknown origin) expressed in Escherichia coli BL21 (DE3) assessed as apparent association rate constant by SPR analysis
[13] = target: T1, Syntenin-1 (Homo sapiens); test: Binding affinity to human syntenin-PDZ2 domain assessed as binding intensity by HTS holdup assay
[14] = Drug distribution in cytoplasm of human patient-derived GBM002 cells at 10 to 30 uM incubated for 2 to 24 hrs hrs by confocal microscopy; type: ADME, subcellular; settings: gbm, dose lower 10 µM, time lower 2 hrs, dose upper 30 µM, time upper 24 hrs
[15] = test system: GBM; test: Antineoplastic activity against human patient-derived GBM001 cells assessed as reduction in cell viability incubated for 72 hrs by Cell-titer-Glo luminescent cell viability assay; type: functional, cell-based
[16] = test system: GBM; test: Antineoplastic activity against human patient-derived GBM cells xenografted in NMRInu-F receiving GBM cells pre-treated with 50 uM compound for 24 hrs assessed as median survival time (reference value: 25 days); type: functional
[17] = test system: Astrocyte; test: Cytotoxic activity against normal human astrocytes assessed as reduction in cell viability at 20 to 30 uM incubated for 24 hrs by Cell-titer-Glo luminescent cell viability assay; type: cell-based; settings: dose 20-30 µM
[18] = test system: GBM; test: Antineoplastic activity against human patient-derived GBM002 cells assessed as reduction in cell viability incubated for 72 hrs by Cell-titer-Glo luminescent cell viability assay; type: functional, cell-based
[19] = test system: HEK293; test: Cytotoxic activity against HEK293 cells assessed as reduction in cell viability at 12.5 to 50 uM incubated for 24 hrs by Cell-titer-Glo luminescent cell viability assay; type: cell-based; settings: human, hek293, 24 h, dose 12.5-50 µM
[20] = target: T1, Syntenin-1 (Homo sapiens); test: as §1

Compound: CC[C@H](C)[C@@H](NC(=O)[C@H](CC(=O)O)NC(=O)[C@@H](NC(=O)[C@@H](NC(=O)[C@H](Cc1c[nH]c2ccccc12)NC(=O)[C@H](Cc1cnc[nH]1)NC(=O)[C@H](CO)NC(=O)[C@H](CCCNC(=N)N)NC(=O)[C@H](CCCNC(=N)N)NC(=O)[C@H](CCCNC(=N)N)NC(=O)[C@H](CCC(N)=O)NC(=O)[C@H](CCCNC(=N)N)NC(=O)[C@H](CCCNC(=N)N)NC(=O)[C@H](CCCCN)NC(=O)[C@H](CCCCN)NC(=O)[C@H](CCCNC(=N)N)NC(=O)CNC(=O)[C@H](Cc1ccc(O)cc1)NC(C)=O)C(C)(C)C)C1CCCCC1)C(=O)O
- inhibition [1]: Dose-dependent effect
- pKi [2]: 6.60

Compound: CC[C@H](C)[C@@H](NC(=O)[C@H](CC(=O)O)NC(=O)[C@@H](NC(=O)[C@@H](NC(=O)[C@H](Cc1c[nH]c2ccccc12)NC(=O)[C@H](Cc1cnc[nH]1)NC(=O)[C@H](CO)NC(=O)[C@H](CCCNC(=N)N)NC(=O)[C@H](CCCNC(=N)N)NC(=O)[C@H](CCCNC(=N)N)NC(=O)[C@H](CCCNC(=N)N)NC(=O)[C@H](CCCNC(=N)N)NC(=O)[C@H](CCCNC(=N)N)NC(=O)[C@H](CCCNC(=N)N)NC(=O)[C@H](CCCNC(=N)N)NC(=O)[C@H](CCCNC(=N)N)NC(C)=O)C(C)(C)C)C1CCCCC1)C(=O)O
- inhibition [1]: Dose-dependent effect
- pKi [2]: 6.60

Compound: CC[C@H](C)[C@@H](NC(=O)[C@H](CC(=O)O)NC(=O)[C@@H](NC(=O)[C@@H](NC(=O)[C@H](Cc1c[nH]c2ccccc12)NC(=O)[C@H](Cc1cnc[nH]1)NC(=O)[C@H](CO)NC(=O)[C@@H]1CCC(=O)NCCCC[C@H](NC(C)=O)C(=O)N[C@H](CCCNC(=N)N)C(=O)N[C@@H](CCCNC(=N)N)C(=O)N[C@H](CCCNC(=N)N)C(=O)NCC(=O)N[C@H](CCCNC(=N)N)C(=O)N[C@@H](CCCCN)C(=O)N[C@H](CCCCN)C(=O)N[C@@H](CCCNC(=N)N)C(=O)N[C@H](CCCNC(=N)N)C(=O)N1)C(C)(C)C)C1CCCCC1)C(=O)O
- Activity [3]: inactive
- Activity [4]: inactive
- half-life [5]: > 1 h
- half-life at 200 µM [6]: > 24 h
- inhibition [1]: Dose-dependent effect
- pKi [2]: 6.60
- Activity [7]: Dose-dependent effect

Compound: CC(C)NCC(O)COc1cccc2ccccc12 (stereo not drawn) [PROPRANOLOL]
- half-life [5]: 0.583 h

Compound: CC[C@H](C)[C@H](NC(=O)[C@H](CC(=O)O)NC(=O)[C@@H](NC(=O)[C@@H](NC(=O)[C@H](Cc1c[nH]c2ccccc12)NC(=O)[C@H](Cc1cnc[nH]1)NC(=O)[C@H](CO)NC(=O)CNC(=O)[C@H](CC(N)=O)NC(=O)[C@H](CC(N)=O)NC(=O)c1ccc(C(=O)[O-])c(-c2c3ccc(=[N+](C)C)cc-3oc3cc(N(C)C)ccc23)c1)C(C)(C)C)C1CCCCC1)C(=O)O (X1-NNGSHW[Tle][Chg]DI-OH)
- pKi [2]: 7.52

Compound: H-RSGYEVM-OH
- pKi [2]: 4.62

Compound: H-SHWTIDI-OH
- half-life [5]: > 1 h
- half-life at 200 µM [6]: 0.142 h
- pKi [2]: 5.70

Compound: CC[C@H](C)[C@H](NC(=O)[C@H](Cc1cnc[nH]1)NC(=O)[C@@H](NC(=O)[C@@H](NC(=O)[C@@H](N)CC(=O)O)C1CCCCC1)C(C)(C)C)C(=O)N[C@@H](Cc1c[nH]c2ccccc12)C(=O)N[C@@H](CO)C(=O)O (H-D[Chg][Tle]HIWS-OH)
- pKi [2]: < 3.30

Compound: H-NAIYSLA-OH
- pKi [2]: 4.00

Compound: CC[C@H](C)[C@H](NC(=O)[C@H](CC(=O)O)NC(=O)[C@@H](NC(=O)[C@@H](NC(=O)[C@H](Cc1c[nH]c2ccccc12)NC(=O)[C@H](Cc1cnc[nH]1)NC(=O)[C@H](CO)NC(=O)COCCOCCNC(=O)CCCC[C@@H]1SC[C@@H]2NC(=O)N[C@@H]21)C(C)(C)C)C1CCCCC1)C(=O)O ({Biotin-AEEA}-SHW[Tle][Chg]DI-OH)
- Ratio [8]: 440
- pKi [9]: 6.77
- K [10]: 0.05 s⁻¹
- Flu intensity [11]: 0.96
- pKi [2]: 6.72
- K [12]: 3.1 10^5/M/s
- Activity [13]: inactive

Compound: CC[C@H](C)[C@H](NC(=O)[C@H](CC(=O)O)NC(=O)[C@@H](NC(=O)[C@@H](NC(=O)[C@H](Cc1c[nH]c2ccccc12)NC(=O)[C@H](Cc1c[nH]cn1)NC(=O)[C@H](CO)NC(=O)[C@H](CCCNC(=N)N)NC(=O)[C@H](CCCNC(=N)N)NC(=O)[C@H](CCCNC(=N)N)NC(=O)[C@H](CCC(N)=O)NC(=O)[C@H](CCCNC(=N)N)NC(=O)[C@H](CCCNC(=N)N)NC(=O)[C@H](CCCCN)NC(=O)[C@H](CCCCN)NC(=O)[C@H](CCCNC(=N)N)NC(=O)CNC(=O)[C@H](Cc1ccc(O)cc1)NC(C)=O)C(C)(C)C)C1CCCCC1)C(=O)O
- half-life [5]: > 1 h

Compound: H-TTNEFYA-OH
- pKi [2]: 5.70

Compound: H-KDKEYYV-OH
- pKi [2]: 3.96

Compound: H-TLEDSVF-OH
- pKi [2]: 4.36

Compound: H-SKGETAV-OH
- pKi [2]: 5.00

Compound: CC[C@H](C)[C@H](NC(=O)[C@H](CC(=O)O)NC(=O)CNC(=O)[C@H](Cc1cnc[nH]1)NC(=O)[C@H](CS)NC(=O)[C@H](CCC(=O)O)NC(=O)[C@H](CC(C)C)NC(=O)[C@@H](NC(=O)[C@H](Cc1c[nH]c2ccccc12)NC(=O)[C@H](Cc1cnc[nH]1)NC(=O)[C@H](CO)NC(=O)[C@H](CCCNC(=N)N)NC(=O)[C@H](CCCNC(=N)N)NC(=O)[C@H](CCCCN)NC(=O)[C@H](CCCCN)NC(=O)[C@H](CCCNC(=N)N)NC(=O)CNC(=O)[C@H](CCCNC(=N)N)NC(=O)[C@H](CCCNC(=N)N)NC(=O)[C@H](CCCNC(=N)N)NC(=O)[C@H](CS)NC(=O)[C@H](C)N)[C@@H](C)O)C(=O)O (H-ACRRRGRKKRRSHWTLECHGDI-OH)
- Drug uptake [14]: Dose-dependent effect and Tde
- Activity [3]: inactive
- Activity [4]: inactive
- half-life [5]: > 1 h
- Activity [15]: Dose-dependent effect
- MST [16]: 45.5 days
- inhibition [1]: Dose-dependent effect
- Activity [17]: Toxic
- Activity [18]: Dose-dependent effect
- Activity [19]: Toxic
- inhibition [20]: Active
- Activity [7]: Dose-dependent effect
